Consider 11 compounds from US20210403465A1, “QUINAZOLINYL-INDAZOLE DERIVATIVES AND THEIR USE AS INHIBITORS OF HUMAN IMMUNODEFICIENCY VIRUS REPLICATION” (ViiV HEALTHCARE UK (NO.5) LIMITED, priority 2018, published 2021).

SMILES strings stand for the structures. pEC50: −log10 of the molar value.

Data set [1] relates to recombinant NL4-3 virus (Renilla luciferase) in MT-2 cells. Briefly: HIV cell culture assay (antiviral activity, luciferase readout in MT-2 cells). In kind it is cell-based. Particulars: NL43. On the procedure: HIV cell culture assay—MT-2 cells, 293T cells and the proviral DNA clone of NL4-3 virus were obtained from the NIH AIDS Research and Reference Reagent Program. MT-2 cells were propagated in RPMI 1640 media supplemented with 10% heat inactivated fetal bovine serum (FBS), […]. The 293T cells were propagated in DMEM media supplemented with 10% heat inactivated FBS, […]. A recombinant NL4-3 proviral clone, in which a section of the nef gene was replaced with the Renilla luciferase gene, was used to make the reference virus used in these studies. The recombinant virus was prepared through transfection of the recombinant NL4-3 proviral clone into 293T cells using Transit-293 Transfection Reagent from Mirus Bio LLC (Madison, Wis.). Supernatant was harvested after 2-3 days and the amount of virus present was titered in MT-2 cells using luciferase enzyme activity as a marker by measuring luciferase enzyme activity. Luciferase was quantitated using the EnduRen Live Cell Substrate from Promega (Madison, Wis.). Antiviral activities of compounds toward the recombinant virus were quantified by measuring luciferase activity in MT-2 cells infected for 4-5 days with the recombinant virus in the presence of serial dilutions of the compound.
The 50% effective concentration (EC50) was calculated by using the exponential form of the median effect equation where (Fa)=1/[1+(ED50/drug conc.)m] (Johnson V A, Byington R T. Infectivity Assay. In Techniques in HIV Research. ed. Aldovini A, Walker B D. 71-76. New York: Stockton Press. 1990). The 50% inhibitory concentration (EC50) was calculated by using the exponential form of the median effect equation where percent inhibition=1/[1+(EC50/drug concentration)m], where m is a parameter that reflects the slope of the concentration-response curve.

Data set [2] can be described thus: Compound cytotoxicity, XTT-based colorimetric assay. Type of data set: cell-based. To be noted: human; uninfected MT2 cells, day 4, XTT. On the procedure: Compound cytotoxicity and the corresponding CC50 values were determined using the same protocol as described in the antiviral assay except that uninfected cells were used. Cytotoxicity was assessed on day 4 in uninfected MT2 cells by using a XTT (2,3-bis[2-Methoxy-4-nitro-5-sulfophenyl]-2H-tetrazolium-5-carboxyanilide inner salt)-based colorimetric assay (Sigma-Aldrich, St Louis, Mo.).
For orientation: Tetrazolium dyes change colour on reduction, which living cells bring about.

With `Cn1nc(NS(C)(=O)=O)c2c(Cl)ccc(-n3c([C@H](Cc4cc(F)cc(F)c4)NC(=O)Cn4nc(C(F)F)c5c4C(F)(F)[C@@H]4C[C@H]54)nc4cc(OCC5CCCC5)ccc4c3=O)c21` (atropisomer, axis not shown; (P)) [Example 2, N—((S)-1-((3P)-3-(4-chloro-1-methyl-3-(methylsulfonamido)-1H-indazol-7-yl)-7-(cyclopentylmethoxy)-4-oxo-3,4-dihydroquinazolin-2-yl)-2-(3,5-difluorophenyl)ethyl)-2-((3bS,4aR)-3-(difluoromethyl)-5,5-difluoro-3b,4,4a,5-tetrahydro-1H-cyclopropa[3,4]cyclopenta[1,2-c]pyrazol-1-yl)acetamide], the pEC50 in data set [1] was 9.74. For the same compound, in data set [2], the 50% cytotoxic concentration (CC50) at 4 days was more than 1000 nM.

Turning to `Cn1nc(NS(C)(=O)=O)c2c(Cl)ccc(-n3c([C@H](Cc4cc(F)cc(F)c4)NC(=O)Cn4nc(C(F)F)c5c4C(F)(F)[C@@H]4C[C@H]54)nc4cc(OCC5CCCCC5)ccc4c3=O)c21` (atropisomer, axis not shown; (P)) [Example 3, N—((S)-1-((3P)-3-(4-chloro-1-methyl-3-(methylsulfonamido)-1H-indazol-7-yl)-7-(cyclohexylmethoxy)-4-oxo-3,4-dihydroquinazolin-2-yl)-2-(3,5-difluorophenyl)ethyl)-2-((3bS,4aR)-3-(difluoromethyl)-5,5-difluoro-3b,4,4a,5-tetrahydro-1H-cyclopropa[3,4]cyclopenta[1,2-c]pyrazol-1-yl)acetamide], the pEC50 in data set [1] is 9.33. Further, in data set [2], the CC50 at 4 days was more than 1000 nM.

For `Cn1nc(NS(C)(=O)=O)c2c(Cl)ccc(-n3c([C@H](Cc4cc(F)cc(F)c4)NC(=O)Cn4nc(C(F)F)c5c4C(F)(F)[C@@H]4C[C@H]54)nc4cc(OCCN5CCS(=O)(=O)CC5)ccc4c3=O)c21` (atropisomer, axis not shown; (P)) [Example 4, N—((S)-1-((3P)-3-(4-chloro-1-methyl-3-(methylsulfonamido)-1H-indazol-7-yl)-7-(2-(1,1-dioxidothiomorpholino)ethoxy)-4-oxo-3,4-dihydroquinazolin-2-yl)-2-(3,5-difluorophenyl)ethyl)-2-((3bS,4aR)-3-(difluoromethyl)-5,5-difluoro-3b,4,4a,5-tetrahydro-1H-cyclopropa[3,4]cyclopenta[1,2-c]pyrazol-1-yl)acetamide], the pEC50 in data set [1] is 10.10. Besides, the CC50 at 4 days in data set [2] is more than 1000 nM.

In the case of `Cn1nc(NS(C)(=O)=O)c2c(Cl)ccc(-n3c([C@H](Cc4cc(F)cc(F)c4)NC(=O)Cn4nc(C(F)F)c5c4C(F)(F)[C@@H]4C[C@H]54)nc4cc(OCCOc5ccccc5)ccc4c3=O)c21` (atropisomer, axis not shown; (P)) [Example 5, N—((S)-1-((3P)-3-(4-chloro-1-methyl-3-(methylsulfonamido)-1H-indazol-7-yl)-4-oxo-7-(2-phenoxyethoxy)-3,4-dihydroquinazolin-2-yl)-2-(3,5-difluorophenyl)ethyl)-2-((3bS,4aR)-3-(difluoromethyl)-5,5-difluoro-3b,4,4a,5-tetrahydro-1H-cyclopropa[3,4]cyclopenta[1,2-c]pyrazol-1-yl)acetamide], in data set [1], the pEC50 is 9.44. This compound gave a CC50 at 4 days in data set [2] of more than 1000 nM.

Regarding `Cn1nc(NS(C)(=O)=O)c2c(Cl)ccc(-n3c([C@H](Cc4cc(F)cc(F)c4)NC(=O)Cn4nc(C(F)F)c5c4C(F)(F)[C@@H]4C[C@H]54)nc4cc(OCCC(C)(C)C)ccc4c3=O)c21` (atropisomer, axis not shown; (P)) [Example 6, N—((S)-1-((3P)-3-(4-chloro-1-methyl-3-(methylsulfonamido)-1H-indazol-7-yl)-7-(3,3-dimethylbutoxy)-4-oxo-3,4-dihydroquinazolin-2-yl)-2-(3,5-difluorophenyl)ethyl)-2-((3bS,4aR)-3-(difluoromethyl)-5,5-difluoro-3b,4,4a,5-tetrahydro-1H-cyclopropa[3,4]cyclopenta[1,2-c]pyrazol-1-yl)acetamide], in data set [1], the pEC50 is 9.74. This compound returned a CC50 at 4 days in data set [2] of more than 1000 nM.

In the case of `Cn1nccc1CCOc1ccc2c(=O)n(-c3ccc(Cl)c4c(NS(C)(=O)=O)nn(C)c34)c([C@H](Cc3cc(F)cc(F)c3)NC(=O)Cn3nc(C(F)F)c4c3C(F)(F)[C@@H]3C[C@H]43)nc2c1` (atropisomer, axis not shown; (P)) [Example 7, N—((S)-1-((3P)-3-(4-chloro-1-methyl-3-(methylsulfonamido)-1H-indazol-7-yl)-7-(2-(1-methyl-1H-pyrazol-5-yl)ethoxy)-4-oxo-3,4-dihydroquinazolin-2-yl)-2-(3,5-difluorophenyl)ethyl)-2-((3bS,4aR)-3-(difluoromethyl)-5,5-difluoro-3b,4,4a,5-tetrahydro-1H-cyclopropa[3,4]cyclopenta[1,2-c]pyrazol-1-yl)acetamide], the pEC50 in data set [1] was 10.13. In data set [2], the cytotoxic concentration (CC50) at 4 days is more than 1000 nM.

Consider `Cn1nc(NS(C)(=O)=O)c2c(Cl)ccc(-n3c([C@H](Cc4cc(F)cc(F)c4)NC(=O)Cn4nc(C(F)F)c5c4C(F)(F)[C@@H]4C[C@H]54)nc4cc(OC5CCCC5)ccc4c3=O)c21` (atropisomer, axis not shown; (P)) [Example 9, N—((S)-1-((3P)-3-(4-chloro-1-methyl-3-(methylsulfonamido)-1H-indazol-7-yl)-7-(cyclopentyloxy)-4-oxo-3,4-dihydroquinazolin-2-yl)-2-(3,5-difluorophenyl)ethyl)-2-((3bS,4aR)-3-(difluoromethyl)-5,5-difluoro-3b,4,4a,5-tetrahydro-1H-cyclopropa[3,4]cyclopenta[1,2-c]pyrazol-1-yl)acetamide], for which the pEC50 in data set [1] was 9.66. In data set [2], this compound registered a CC50 at 4 days of more than 1000 nM.

`Cn1nc(NS(C)(=O)=O)c2c(Cl)ccc(-n3c([C@H](Cc4cc(F)cc(F)c4)NC(=O)Cn4nc(C(F)F)c5c4C(F)(F)[C@@H]4C[C@H]54)nc4cc(OC5CCOCC5)ccc4c3=O)c21` (atropisomer, axis not shown; (P)) [Example 10, N—((S)-1-((3P)-3-(4-chloro-1-methyl-3-(methylsulfonamido)-1H-indazol-7-yl)-4-oxo-7-((tetrahydro-2H-pyran-4-yl)oxy)-3,4-dihydroquinazolin-2-yl)-2-(3,5-difluorophenyl)ethyl)-2-((3bS,4aR)-3-(difluoromethyl)-5,5-difluoro-3b,4,4a,5-tetrahydro-1H-cyclopropa[3,4]cyclopenta[1,2-c]pyrazol-1-yl)acetamide]: the pEC50 in data set [1] is 10.44. In data set [2], the CC50 at 4 days was more than 1000 nM.

In the case of `Cn1nc(NS(C)(=O)=O)c2c(Cl)ccc(-n3c([C@H](Cc4cc(F)cc(F)c4)NC(=O)Cn4nc(C(F)F)c5c4C(F)(F)[C@@H]4C[C@H]54)nc4cc(OCc5cncnc5)ccc4c3=O)c21` (atropisomer, axis not shown; (P)) [Example 11, N—((S)-1-((3P)-3-(4-chloro-1-methyl-3-(methylsulfonamido)-1H-indazol-7-yl)-4-oxo-7-(pyrimidin-5-ylmethoxy)-3,4-dihydroquinazolin-2-yl)-2-(3,5-difluorophenyl)ethyl)-2-((3bS,4aR)-3-(difluoromethyl)-5,5-difluoro-3b,4,4a,5-tetrahydro-1H-cyclopropa[3,4]cyclopenta[1,2-c]pyrazol-1-yl)acetamide], the pEC50 in data set [1] was 10.18. This compound gave a half-maximal cytotoxic concentration (CC50) at 4 days in data set [2] of more than 1000 nM.

In the case of `Cn1nc(NS(C)(=O)=O)c2c(Cl)ccc(-n3c([C@H](Cc4cc(F)cc(F)c4)NC(=O)Cn4nc(C(F)F)c5c4C(F)(F)[C@@H]4C[C@H]54)nc4cc(OCC5CCC5)ccc4c3=O)c21` (atropisomer, axis not shown; (P)) [Example 12, N—((S)-1-((3P)-3-(4-chloro-1-methyl-3-(methylsulfonamido)-1H-indazol-7-yl)-7-(cyclobutylmethoxy)-4-oxo-3,4-dihydroquinazolin-2-yl)-2-(3,5-difluorophenyl)ethyl)-2-((3bS,4aR)-3-(difluoromethyl)-5,5-difluoro-3b,4,4a,5-tetrahydro-1H-cyclopropa[3,4]cyclopenta[1,2-c]pyrazol-1-yl)acetamide], the pEC50 in data set [1] is 9.82. In data set [2], this compound gave a CC50 at 4 days of more than 1000 nM.

As for `Cn1nc(NS(C)(=O)=O)c2c(Cl)ccc(-n3c([C@H](Cc4cc(F)cc(F)c4)NC(=O)Cn4nc(C(F)F)c5c4C(F)(F)[C@@H]4C[C@H]54)nc4cc(OCCn5cccn5)ccc4c3=O)c21` (atropisomer, axis not shown; (P)) [Example 13, N—((S)-1-(7-(2-(1H-pyrazol-1-yl)ethoxy)-(3P)-3-(4-chloro-1-methyl-3-(methylsulfonamido)-1H-indazol-7-yl)-4-oxo-3,4-dihydroquinazolin-2-yl)-2-(3,5-difluorophenyl)ethyl)-2-((3bS,4aR)-3-(difluoromethyl)-5,5-difluoro-3b,4,4a,5-tetrahydro-1H-cyclopropa[3,4]cyclopenta[1,2-c]pyrazol-1-yl)acetamide], the negative-log EC50 (pEC50) in data set [1] is 10.49. In data set [2], this compound came in with a CC50 at 4 days of more than 1000 nM.

As a reminder, the pEC50 is −log10 of the EC50, conventionally taken in molar units. In general, CC50 refers to the concentration at which the toxic effect on the cells reaches its halfway point. A lower CC50 goes with greater toxicity to the cells.
